From patent US20080139525A1, “ANTIOXIDANT THERAPIES” (The Brigham and Women's Hospital, Inc., priority 2006, published 2008) come the findings set out here.

In assay [1] the test system is isolated rat hearts (wild-type and GPx-TG). Kind of assay: Langendorff isolated heart, zero-flow ischemia followed by reperfusion (Example 1). Format: ex vivo. The conditions noted are these: compared with vehicle control. On the procedure:
Hearts were isolated from rats and perfused in the Langendorff mode as previously described (Jain et al., Am J Physiol. 2001; 280:H569-H575; Lim et al., Am J Physiol. 1999; 277:H2083-H2090). Briefly, animals were injected intraperitoneally with heparin (10,000 U/kg) and anesthetized with a mixture of ketamine (150 mg/kg) and xylazine (15 mg/kg). The thorax was rapidly opened and the heart excised and arrested in ice-cold saline. A short perfusion cannula was inserted into the aortic root to initiate retrograde perfusion. The hearts were perfused with Krebs-Henseleit buffer (in mmol/L: NaCl 118, KCl 4.7, CaCl2 1.8, KH2PO4 1.2, MgSO4 1.2, NaHCO3 24.0, and glucose 10.0) equilibrated with 95% O2/5% CO2 to yield a pH of 7.4. A thin cannula was pierced through the apex of the left ventricle (LV) to vent thebesian drainage. A ventricular balloon, composed of polyvinyl chloride film and connected to a polyethylene tube, was inserted into the LV through the mitral valve via an incision in the left atrium. The balloon was connected to a pressure transducer (Statham P23Db, Gould) for recording of LV pressures. The balloon was inflated with saline to adjust the end-diastolic pressure (EDP) to 10 mm Hg, and the balloon volume was held constant for the duration of the experiment. Hearts were paced (Grass Instruments) with platinum wires placed on the epicardial surface of the right ventricle. Coronary perfusion pressure was held constant during the duration of the experiment at 80 mm Hg. An inline ultrasonic flow probe (Transonics Systems Inc) was positioned immediately above the aortic cannula to measure coronary flow. Systolic pressure, EDP, and coronary flow were collected online by use of a commercially available data acquisition system (PowerLab ADInstruments). Developed pressure (DevP) (the difference between systolic and diastolic pressures) and EDP were used as indices of contractile and diastolic function, respectively.
During 20 minutes of baseline stabilization, all hearts were maintained at 37° C. and paced at 7 Hz. Hearts were subsequently subjected to 15 minutes of zero-flow ischemia followed by 30 minutes of reperfusion with or without a reperfusion solution containing 23 μM of the SOD mimetic M40403. The EDP was higher and DevP was lower in the wild-type (WT) rats with this treatment compared with vehicle control.

The test system of another assay is rat hearts. Put plainly: No-flow ischemia-reperfusion of hearts after 2 weeks of Se supplementation (Example 2). Conditions: 23 μM M40403 in perfusate with sodium selenite 50 μg/kg/day for 2 weeks; compared to M40403 without sodium selenite. Format: in vivo. The procedure:
Hearts were isolated from rats and perfused in the Langendorff mode as previously described (Jain et al., Am J Physiol. 2001; 280:H569-H575; Lim et al., Am J Physiol. 1999; 277:H2083-H2090). Briefly, animals were injected intraperitoneally with heparin (10,000 U/kg) and anesthetized with a mixture of ketamine (150 mg/kg) and xylazine (15 mg/kg). The thorax was rapidly opened and the heart excised and arrested in ice-cold saline. A short perfusion cannula was inserted into the aortic root to initiate retrograde perfusion. The hearts were perfused with Krebs-Henseleit buffer (in mmol/L: NaCl 118, KCl 4.7, CaCl2 1.8, KH2PO4 1.2, MgSO4 1.2, NaHCO3 24.0, and glucose 10.0) equilibrated with 95% O2/5% CO2 to yield a pH of 7.4. A thin cannula was pierced through the apex of the left ventricle (LV) to vent thebesian drainage. A ventricular balloon, composed of polyvinyl chloride film and connected to a polyethylene tube, was inserted into the LV through the mitral valve via an incision in the left atrium. […]
Hearts were treated first for 2 weeks with or without Se supplementation (as sodium selenite, 50 μg/kg/day), after which they were subjected to no-flow ischemia-reperfusion with 23 μM of the SOD mimetic M40403 added to the perfusate. EDP and DevP (as measures of ventricular performance) were monitored over time following restoration of perfusion. […]

Setting [2] is: GPx-TG (glutathione peroxidase-1 transgene) with added dietary selenium, 23 μM M40403 in reperfusion solution.
Where [3] appears, read: wild-type (WT) rats, 15 min zero-flow ischemia, 30 min reperfusion with 23 μM M40403.

Each structure is given as a SMILES string.

Take `[Cl-].[Cl-].[Mn+2].c1cc2nc(c1)CN[C@@H]1CCCC[C@H]1NCCN[C@@H]1CCCC[C@H]1NC2` [M40403]: the “developed pressure (DevP)” value was “no change” in assay [1] (setting [2]) and “lower” in assay [1] (setting [3]). Further, the “end-diastolic pressure (EDP)” value is “improved EDP (i.e., lower EDP)” in assay [1] (setting [2]); “higher” in assay [1] (setting [3]); “improved EDP (i.e., lower EDP)” in the assay on rat hearts.
